# Test results published in patent US11479804B1 (priority 2010, dated 2022).
# “Also recorded” adds a separate entry of the source.
# Tests used:
# acetylcholinesterase [1] = target: T1, acetylcholinesterase (Homo sapiens, UniProt P22303); format: biochemical
# acetylcholinesterase [2] = target: T1, acetylcholinesterase; assay: Acetylcholinesterase assay with malaoxon in complex samples (apple juice, whole milk, soil) using GEMBE; format: biochemical; settings: for LOD in filtered apple juice: filtered apple juice (10× dilution); for LOD in soil: soil added as a slurry to the sample reservoir; for LOD in whole milk: whole milk (10× dilution)
# Method: Assay Conditions in Apple Juice. A running buffer was prepared consisting of 4-(2-hydroxyethyl)-1-piperazineethanesulfonic acid, i.e. HEPES, at a concentration of ˜100 mM and 2-[Bis(2-hydroxyethyl)amino]-2-(hydroxymethyl)-1,3-propanediol, i.e. BIS-TRIS, at a concentration of ˜100 mM. The running buffer was prepared at pH ˜7.1. EOTrol™ HR (Target Discovery, Palo Alto, Calif.) was added to the run buffer as a dynamic coating to reverse the direction of EOF at a concentration of 1% (by volume).
# Prior to reaction, the surface of a polyoxymethylene sample reservoir (Delrin, DuPont, Wilmington, Del.) was passivated with bovine serum albumin (˜2 mg/mL). A sample containing malaoxon (˜1 mM) in filtered apple juice (10× dilution) was added to the sample reservoir. Acetylcholine (˜500 μM) and acetylcholinesterase (˜10.4 nM) were added to the sample reservoir and were allowed to incubate for ˜5 min.
# Assay Conditions in Whole Milk. A running buffer was prepared consisting of 4-(2-hydroxyethyl)-1-piperazineethanesulfonic acid, i.e. HEPES, at a concentration of ˜100 mM and 2-[Bis(2-hydroxyethyl)amino]-2-(hydroxymethyl)-1,3-propanediol, i.e. BIS-TRIS, at a concentration of ˜100 mM. The running buffer was prepared at pH ˜7.1. EOTrol™ HR (Target Discovery, Palo Alto, Calif.) was added to the run buffer as a dynamic coating to reverse the direction of EOF at a concentration of 1% (by volume).
# Prior to reaction, the surface of a polyoxymethylene sample reservoir (Delrin, DuPont, Wilmington, Del.) was passivated with bovine serum albumin (2 mg/mL). A sample containing malaoxon (˜1 mM) in whole milk (4% milk fat, Giant Food) at a dilution of 10× was added to the sample reservoir. Acetylcholine (˜500 μM) and acetylcholinesterase (˜10.4 nM) were added to the sample reservoir and were allowed to incubate for ˜5 minutes.
# Assay Conditions in Soil. A running buffer was prepared consisting of 4-(2-hydroxyethyl)-1-piperazineethanesulfonic acid, i.e. HEPES, at a concentration of ˜100 mM and 2-[Bis(2-hydroxyethyl)amino]-2-(hydroxymethyl)-1,3-propanediol, i.e. BIS-TRIS, at a concentration of ˜100 mM. The running buffer was prepared at pH ˜7.1. EOTrol™ HR (Target Discovery, Palo Alto, Calif.) was added to the run buffer as a dynamic coating to reverse the direction of EOF at a concentration of 1% (by volume).
# Prior to reaction, the surface of a polyoxymethylene sample reservoir (Delrin, DuPont, Wilmington, Del.) was passivated with bovine serum albumin (2 mg/mL). A sample containing malaoxon (˜1 mM) in soil was added as a slurry to the sample reservoir. Acetylcholine (˜500 μM) and acetylcholinesterase (˜10.4 nM) were added to the sample reservoir and were allowed to incubate for ˜5 min.
# Separation of Acetylcholine and Choline Using Gradient Elution Moving Boundary Electrophoresis. The reaction mixtures were separately introduced into the inlet end of the separation channel of a GEMBE device, wherein a voltage of ˜−2000V was applied on the waste chamber. During the GEMBE separation, the pressure applied to the run buffer reservoir was varied from about 6,000 Pa to about −8,000 Pa at a rate of −300 Pa/s. The concentration of choline was detected and quantified.
# [3] = acetylcholine ~500 μM, acetylcholinesterase ~10.4 nM
# T1 sequence (P22303 32-614): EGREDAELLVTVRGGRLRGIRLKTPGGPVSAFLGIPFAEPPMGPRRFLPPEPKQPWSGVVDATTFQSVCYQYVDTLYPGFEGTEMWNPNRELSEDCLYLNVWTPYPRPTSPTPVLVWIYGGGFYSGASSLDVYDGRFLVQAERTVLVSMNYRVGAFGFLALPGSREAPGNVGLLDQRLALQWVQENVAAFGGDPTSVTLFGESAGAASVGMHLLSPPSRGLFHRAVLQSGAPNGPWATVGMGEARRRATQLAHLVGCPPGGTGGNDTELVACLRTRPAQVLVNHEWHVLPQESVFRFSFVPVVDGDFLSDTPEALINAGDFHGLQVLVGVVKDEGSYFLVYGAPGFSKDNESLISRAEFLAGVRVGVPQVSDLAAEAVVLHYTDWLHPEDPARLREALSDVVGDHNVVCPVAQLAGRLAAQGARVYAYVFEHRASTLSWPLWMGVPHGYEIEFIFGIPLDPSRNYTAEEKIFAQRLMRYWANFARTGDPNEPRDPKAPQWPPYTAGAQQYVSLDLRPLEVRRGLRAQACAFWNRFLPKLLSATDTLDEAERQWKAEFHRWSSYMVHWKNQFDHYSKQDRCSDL
smiles,measurement,setting,value
CCOC(=O)CC(SP(=O)(OC)OC)C(=O)OCC (stereo not drawn) [malaoxon],concentration of choline formed (inhibition of acetylcholinesterase),acetylcholinesterase [1],a decrease in the concentration of choline was observed; also recorded: the concentration of choline does not increase over time
same,limit of detection (LOD),acetylcholinesterase [1],87.7 ppb
same,limit of detection (LOD) from conversion rate of acetylcholine to choline,acetylcholinesterase [1],~279 nM
same,LOD in filtered apple juice,acetylcholinesterase [2],85.6 ppb
same,LOD in filtered apple juice,acetylcholinesterase [2]; [3],~2.72e-07 M
same,LOD in soil,acetylcholinesterase [2],1.5 ppm
same,LOD in soil,acetylcholinesterase [2]; [3],~4.93e-06 M
same,LOD in whole milk,acetylcholinesterase [2],82.0 ppb
same,LOD in whole milk,acetylcholinesterase [2]; [3],~2.61e-07 M
